Test results from patent publication US20220289753A1, “SHP2 INHIBITORS” (IRBM S.P.A., priority 2019, published 2022).
pIC50: −log10 of the molar value. Like-named read-outs stand apart in the source and are kept apart here.

How the values were obtained:
[1] = molecular target: T1, SHP-2 enzyme (Met1-Leu525) (Homo sapiens, UniProt Q06124); experiment: SHP2 inhibition enzymatic assay (DiFMUP substrate, IRS1 peptide activation); type: biochemical; settings: SHP2 wt; activated by 500 nM IRS1 peptide; 75 μM DiFMUP substrate
T1 construct: synthetized by Origene, Met1-Leu525, cat #TP750155; purchased Origene TP750155
T1 sequence (Q06124 1-525): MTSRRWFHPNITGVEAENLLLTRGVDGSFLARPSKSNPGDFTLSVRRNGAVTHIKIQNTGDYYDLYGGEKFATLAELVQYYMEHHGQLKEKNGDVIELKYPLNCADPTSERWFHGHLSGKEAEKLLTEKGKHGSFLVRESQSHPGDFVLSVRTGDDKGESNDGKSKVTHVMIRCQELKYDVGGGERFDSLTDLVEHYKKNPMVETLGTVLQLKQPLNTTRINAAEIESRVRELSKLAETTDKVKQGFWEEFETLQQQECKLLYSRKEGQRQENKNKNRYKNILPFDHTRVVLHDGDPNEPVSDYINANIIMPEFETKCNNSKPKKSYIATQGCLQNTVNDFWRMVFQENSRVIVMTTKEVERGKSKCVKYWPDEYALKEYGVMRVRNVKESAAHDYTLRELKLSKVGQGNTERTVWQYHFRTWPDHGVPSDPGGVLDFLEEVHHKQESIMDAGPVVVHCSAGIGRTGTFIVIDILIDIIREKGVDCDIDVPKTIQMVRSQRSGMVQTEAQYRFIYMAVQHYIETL
Outline: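 SHP-2 (Met1-Leu525, 0.5 nM final) preincubated 30 min with compounds and IRS1 activating peptide in HEPES pH 7.2 buffer with NaCl, KCl, EDTA, tween-20, 5 mM DTT. DiFMUP then added for 30 min at room temperature and fluorescence read. IC50 from four-parameter logistic fit of % inhibition.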

[2] = system: ERK phosphorylation in KYSE-520 cells; experiment: Phospho-ERK cellular assay (Advanced phospho-ERK1/2 (Thr202/Tyr204) TR-FRET kit); type: cell-based; settings: KYSE-520 cells, 2 h at 37° C., TR-FRET, read-out: pERK IC50
Outline: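 IC50 values are inflection points of four-parameter logistic fits of percent activity against compound dilution. Compound exposure lasted 2 h at 37° C in KYSE-520 cells. Lysates were probed overnight with Eu-cryptate/d2 antibodies to ERK1/2 phosphorylated at Thr202/Tyr204, so reduced TR-FRET indicates SHP2 inhibition.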

| SMILES | pIC50 [1] | pIC50 ([2]; Homo sapiens, KYSE-520, 2 h) | pIC50 [2] |
| --- | --- | --- | --- |
| N[C@@H]1c2cc(F)ccc2CC12CCN(c1nc3ncc(Sc4ccncc4F)nc3[nH]1)CC2 [Example 187, (S)-6-fluoro-1′-(6-((3-fluoropyridin-4-yl)thio)-1H-imidazo[4,5-b]pyrazin-2-yl)-1,3-dihydrospiro[indene-2,4′-piperidin]-1-amine] | > 6.30 | > 6.00 |  |
| Nc1nccc(Sc2cnc3[nH]c(N4CCC5(CC4)Cc4cc(F)c(F)cc4[C@H]5N)nc3n2)c1Cl [Example 188, (S)-1′-(5-((2-amino-3-chloropyridin-4-yl)thio)-1H-imidazo[4,5-b]pyrazin-2-yl)-5,6-difluoro-1,3-dihydrospiro[indene-2,4′-piperidin]-1-amine] | > 6.30 | > 6.00 |  |
| N[C@@H]1c2cc(F)c(F)cc2CC12CCN(c1nc3nc(Sc4ccnc(NC5CC5)c4Cl)cnc3[nH]1)CC2 [Example 189, (S)-1′-(5-((3-chloro-2-(cyclopropylamino)pyridin-4-yl)thio)-1H-imidazo[4,5-b]pyrazin-2-yl)-5,6-difluoro-1,3-dihydrospiro[indene-2,4′-piperidin]-1-amine] | > 6.30 | > 6.00 |  |
| COc1c(Sc2cnc3nc(N4CCC5(CC4)Cc4ccc(F)cc4[C@H]5N)[nH]c3n2)ccnc1N [Example 190, (S)-1′-(6-((2-amino-3-methoxypyridin-4-yl)thio)-1H-imidazo[4,5-b]pyrazin-2-yl)-6-fluoro-1,3-dihydrospiro[indene-2,4′-piperidin]-1-amine] | > 6.30 | > 6.00 |  |
| N#CC1CN(c2nccc(Sc3cnc4[nH]c(N5CCC6(CC5)Cc5ccccc5[C@H]6N)nc4n3)c2Cl)C1 [Example 191, (S)-1-(4-((2-(1-amino-1,3-dihydrospiro[indene-2,4′-piperidin]-1′-yl)-1H-imidazo[4,5-b]pyrazin-5-yl)thio)-3-chloropyridin-2-yl)azetidine-3-carbonitrile] | > 6.30 | > 6.00 |  |
| N[C@@H]1c2cc(F)ccc2CC12CCN(c1nc3nc(Sc4cccn5ccnc45)cnc3[nH]1)CC2 [Example 192, (S)-6-fluoro-1′-(5-(imidazo[1,2-a]pyridin-8-ylthio)-1H-imidazo[4,5-b]pyrazin-2-yl)-1,3-dihydrospiro[indene-2,4′-piperidin]-1-amine] | > 6.30 | 5.30 to 6.00 |  |
| N[C@@H]1c2ccccc2CC12CCN(c1nc3nc(Sc4ccc5cc[nH]c5c4)cnc3[nH]1)CC2 [Example 193, (S)-1′-(5-((1H-indol-6-yl)thio)-1H-imidazo[4,5-b]pyrazin-2-yl)-1,3-dihydrospiro[indene-2,4′-piperidin]-1-amine] | > 6.30 | 5.30 to 6.00 |  |
| N[C@@H]1c2ccccc2CC12CCN(c1nc3ncc(Sc4ccnc5nccnc45)nc3[nH]1)CC2 [Example 194, (S)-1′-(6-(pyrido[2,3-b]pyrazin-8-ylthio)-1H-imidazo[4,5-b]pyrazin-2-yl)-1,3-dihydrospiro[indene-2,4′-piperidin]-1-amine] | > 6.30 | > 6.00 |  |
| Cc1nccc(Sc2cnc3nc(N4CCC5(CC4)Cc4ccccc4[C@H]5N)[nH]c3n2)c1Cl [Example 195, (S)-1′-(6-((3-chloro-2-methylpyridin-4-yl)thio)-1H-imidazo[4,5-b]pyrazin-2-yl)-1,3-dihydrospiro[indene-2,4′-piperidin]-1-amine] | > 6.30 | > 6.00 |  |
| N[C@@H]1c2ccncc2CC12CCN(c1nc3ncc(Sc4ccnc(NC5CC5)c4Cl)nc3[nH]1)CC2 [Example 196, (S)-1′-(5-((3-chloro-2-(cyclopropylamino)pyridin-4-yl)thio)-1H-imidazo[4,5-b]pyrazin-2-yl)-5,7-dihydrospiro[cyclopenta[c]pyridine-6,4′-piperidin]-5-amine] | > 6.30 | > 6.00 |  |
| N[C@H]1c2ccncc2CC12CCN(c1nc3nc(Sc4ccnc(NC5CC5)c4Cl)cnc3[nH]1)CC2 [Example 197, (R)-1′-(5-((3-chloro-2-(cyclopropylamino)pyridin-4-yl)thio)-1H-imidazo[4,5-b]pyrazin-2-yl)-5,7-dihydrospiro[cyclopenta[c]pyridine-6,4′-piperidin]-5-amine] | > 6.30 | 5.30 to 6.00 |  |
| N[C@@H]1c2ccccc2CC12CCN(c1nc3ncc(Sc4cccc5[nH]ccc45)nc3[nH]1)CC2 [Example 198, (S)-1′-(6-((1H-indol-4-yl)thio)-1H-imidazo[4,5-b]pyrazin-2-yl)-1,3-dihydrospiro[indene-2,4′-piperidin]-1-amine] | > 6.30 | > 6.00 |  |
| Nc1nccc(Sc2cnc3nc(N4CCC5(CC4)Cc4cc(F)ccc4[C@H]5N)[nH]c3n2)c1Cl [Example 199, (S)-1′-(6-((2-amino-3-chloropyridin-4-yl)thio)-1H-imidazo[4,5-b]pyrazin-2-yl)-5-fluoro-1,3-dihydrospiro[indene-2,4′-piperidin]-1-amine] | > 6.30 | > 6.00 |  |
| CCOc1cnccc1Sc1cnc2[nH]c(N3CCC4(CC3)Cc3ccccc3[C@H]4N)nc2n1 [Example 200, (S)-1′-(5-((3-ethoxypyridin-4-yl)thio)-1H-imidazo[4,5-b]pyrazin-2-yl)-1,3-dihydrospiro[indene-2,4′-piperidin]-1-amine] | > 6.30 | > 6.00 |  |
| CNc1nccc(Sc2cnc3[nH]c(N4CCC5(CC4)Cc4ccccc4[C@H]5N)nc3n2)c1C#N [Example 201, (S)-4-((2-(1-amino-1,3-dihydrospiro[indene-2,4′-piperidin]-1′-yl)-1H-imidazo[4,5-b]pyrazin-5-yl)thio)-2-(methylamino)nicotinonitrile] | > 6.30 | > 6.00 |  |
| Cn1cc2cccc(Sc3cnc4[nH]c(N5CCC6(CC5)Cc5ccccc5[C@H]6N)nc4n3)c2n1 [Example 202, (S)-1′-(5-((2-methyl-2H-indazol-7-yl)thio)-1H-imidazo[4,5-b]pyrazin-2-yl)-1,3-dihydrospiro[indene-2,4′-piperidin]-1-amine] | > 6.30 | 5.30 to 6.00 |  |
| Nc1nccc(Sc2cnc3nc(N4CCC5(CC4)Cc4cccc(F)c4[C@H]5N)[nH]c3n2)c1Cl [Example 203, (S)-1′-(6-((2-amino-3-chloropyridin-4-yl)thio)-1H-imidazo[4,5-b]pyrazin-2-yl)-7-fluoro-1,3-dihydrospiro[indene-2,4′-piperidin]-1-amine] | > 6.30 | > 6.00 |  |
| Cc1c(Sc2cnc3nc(N4CCC5(CC4)Cc4ccccc4[C@H]5N)[nH]c3n2)ccnc1N [Example 204, (S)-1′-(6-((2-amino-3-methylpyridin-4-yl)thio)-1H-imidazo[4,5-b]pyrazin-2-yl)-1,3-dihydrospiro[indene-2,4′-piperidin]-1-amine] | > 6.30 | > 6.00 |  |
| COc1ccc2c(c1)[C@@H](N)C1(CCN(c3nc4nc(Sc5ccnc(N)c5Cl)cnc4[nH]3)CC1)C2 [Example 205, (S)-1′-(5-((2-amino-3-chloropyridin-4-yl)thio)-1H-imidazo[4,5-b]pyrazin-2-yl)-6-methoxy-1,3-dihydrospiro[indene-2,4′-piperidin]-1-amine] | > 6.30 | > 6.00 |  |
| Nc1nccc(Sc2cnc3[nH]c(N4CCC5(CC4)Cc4c(F)cccc4[C@H]5N)nc3n2)c1Cl [Example 206, (S)-1′-(5-((2-amino-3-chloropyridin-4-yl)thio)-1H-imidazo[4,5-b]pyrazin-2-yl)-4-fluoro-1,3-dihydrospiro[indene-2,4′-piperidin]-1-amine] | > 6.30 | > 6.00 |  |
| N[C@@H]1c2cccc(F)c2CC12CCN(c1nc3nc(Sc4ccncc4Cl)cnc3[nH]1)CC2 [Example 207, (S)-1′-(5-((3-chloropyridin-4-yl)thio)-1H-imidazo[4,5-b]pyrazin-2-yl)-4-fluoro-1,3-dihydrospiro[indene-2,4′-piperidin]-1-amine] | > 6.30 | 5.30 to 6.00 | > 6.00 |
| CNc1nccc(Sc2cnc3[nH]c(N4CCC5(CC4)Cc4ccccc4[C@H]5N[S@+]([O-])C(C)(C)C)nc3n2)c1Cl [Example 209, (R)-N-((S)-1′-(5-((3-chloro-2-(methylamino)pyridin-4-yl)thio)-1H-imidazo[4,5-b]pyrazin-2-yl)-1,3-dihydrospiro[indene-2,4′-piperidin]-1-yl)-2-methylpropane-2-sulfinamide] | > 6.30 | 5.30 to 6.00 | > 6.00 |
| N[C@@H]1c2ccccc2CC12CCN(c1nc3nc(Sc4cccc5nonc45)cnc3[nH]1)CC2 [Example 213, (S)-1′-(5-(benzo[c][1,2,5]oxadiazol-4-ylthio)-1H-imidazo[4,5-b]pyrazin-2-yl)-1,3-dihydrospiro[indene-2,4′-piperidin]-1-amine] | > 6.30 | > 6.00 |  |
